Test results from patent US10309967B2, “Methods of diagnosing bipolar disorders and screening for therapeutic compounds” (National University Corporation Chiba University, priority 2015, dated 2019).
“Also recorded” adds a separate entry of the source.

Tests used:
Format in all cases: in vivo
Aco1 = assay: Quantitative PCR of Aco1 mRNA in rat prefrontal cortex and hippocampus after Li or VPA; settings: normalized to Gapdh; for Aco1 gene expression: relative to control, mean ± SD; for mRNA levels of Aco1: rat prefrontal cortex and hippocampus, chronic (4-weeks) treatment, vs control
Method: (§1) Real-time quantitative RT-PCR analysis was conducted using an ABI7900HT Fast Real-Time PCR System (Applied Biosystems, Foster City, Calif.) in both human and rat samples. TaqMan probes and primers for the seven genes (ACO1, ACO2, IDH1, IDH2, IDH3A, IDH3B, IDH3G) and GAPDH (an internal control) (Table 11) were TAQMAN® Gene Expression Assays products (Applied Biosystems).
(§2) The CSF concentrations of 116 major metabolites from several pathways were measured. […] Male Sprague-Dawley rats (Japan SLC Inc., Shizuoka, Japan) aged 6 weeks old were used in this study. All rats were housed in groups of three per cage in a room maintained at 23° C.±2° C. and 60±10% humidity with a 12/12 hour light/dark cycle (lights on at 7:00 a.m.). The rats were given free access to food and water. Animal care and use were conducted in accordance with the Institutional Guidelines for Animal Care and Use of Otsuka Pharmaceutical Co., Ltd. (Tokushima, Japan). […] The drinking water was replaced twice a week. […] All animals were decapitated on day 30 after CSF sampling, and brain regions (prefrontal cortex, and hippocampus) were dissected rapidly on ice. Metabolomic analyses of rat CSF samples were performed as described herein.
(§3) Prefrontal cortex, and hippocampus were dissected rapidly on ice and stored in RNA later (Applied Biosystems) at 4° C. until used for RNA isolation, cDNA synthesis and polymerase chain reaction (PCR) amplification. The total RNA was extracted using the RNeasy Lipid Tissue Mini Kit (QIAGEN) following the instructions of manufacturer. RNA yield and integrity was assessed using Nanodrop (NanoDrop Technologies). Reverse transcription of total RNA was done using the […] VILO cDNA Synthesis Kit (Invitrogen). In the quantitative PCR, the cDNA was amplified using commercial TaqMan assays (Applied Biosystems) for rat Idh3A (Rn00586270_m1), Idh3B (Rn00504589_g1), Aco1 (Rn00569045_m1), Aco2 (Rn00577876_m1) and Gapdh (Rn01775763_g1) with an ABI 7500 Fast Real-Time PCR system (Applied Biosystems). (Table 17) Reactions were performed in triplicates. All reactions were normalized to Gapdh and presented as relative expression changes compared to control.

Idh3a = assay: Quantitative PCR of Idh3a mRNA in rat prefrontal cortex and hippocampus after Li or VPA; settings: normalized to Gapdh; for Idh3a gene expression: relative to control, mean ± SD; for mRNA levels of Idh3a: rat prefrontal cortex and hippocampus, chronic (4-weeks) treatment, vs control
Method: as §1, §2, §3

Aco2 = assay: Quantitative PCR of Aco2 mRNA in rat prefrontal cortex and hippocampus after Li or VPA; settings: normalized to Gapdh; for Aco2 gene expression: relative to control, mean ± SD; for mRNA levels of Aco2: rat prefrontal cortex and hippocampus, chronic (4-weeks) treatment, vs control
Method: as §1, §2, §3

Idh3b = assay: Quantitative PCR of Idh3b mRNA in rat prefrontal cortex and hippocampus after Li or VPA; settings: normalized to Gapdh; for Idh3b gene expression: relative to control, mean ± SD; for mRNA levels of Idh3b: rat prefrontal cortex and hippocampus, chronic (4-weeks) treatment, vs control
Method: as §1, §2, §3

Structure (SMILES): O=C([O-])[O-].[Li+].[Li+] [Li, lithium carbonate]
- Aco1 gene expression (Aco1; rat hippocampus): 1.0171 ± 0.0497
- mRNA levels of Aco1 (Aco1): did not alter; also recorded: not altered
- Aco1 gene expression (Aco1; rat prefrontal cortex): 1.0091 ± 0.1737
- Idh3a gene expression (Idh3a; rat hippocampus): 1.2250 ± 0.2326
- mRNA levels of Idh3a (Idh3a): did not alter; also recorded: not altered
- Idh3a gene expression (Idh3a; rat prefrontal cortex): 1.3420 ± 0.5725
- Aco2 gene expression (Aco2; rat hippocampus): 1.1340 ± 0.1248
- mRNA levels of Aco2 (Aco2): did not alter; also recorded: not altered
- Aco2 gene expression (Aco2; rat prefrontal cortex): 0.9921 ± 0.1576
- Idh3b gene expression (Idh3b; rat hippocampus): 1.3074 ± 0.2494
- mRNA levels of Idh3b (Idh3b): did not alter; also recorded: not altered
- Idh3b gene expression (Idh3b; rat prefrontal cortex): 1.3440 ± 0.4424

Structure (SMILES): CCCC(CCC)C(=O)[O-].[Na+] [VPA, valproic acid sodium salt]
- Aco1 gene expression (Aco1; rat hippocampus): 1.0956 ± 0.0520
- mRNA levels of Aco1 (Aco1; sodium salt): did not alter; also recorded: not altered
- Aco1 gene expression (Aco1; rat prefrontal cortex): 1.1550 ± 0.1237
- mRNA levels of Idh3a (Idh3a; sodium salt): did not alter; also recorded: not altered
- Idh3a gene expression (Idh3a; rat prefrontal cortex): 1.2546 ± 0.3578
- Aco2 gene expression (Aco2; rat hippocampus): 1.0358 ± 0.0499
- mRNA levels of Aco2 (Aco2; sodium salt): did not alter; also recorded: not altered
- Aco2 gene expression (Aco2; rat prefrontal cortex): 0.9505 ± 0.1596
- Idh3b gene expression (Idh3b; rat hippocampus): 1.1512 ± 0.1377
- mRNA levels of Idh3b (Idh3b; sodium salt): did not alter; also recorded: not altered
- Idh3b gene expression (Idh3b; rat prefrontal cortex): 1.2265 ± 0.2128
